Results: ChEMBL document CHEMBL4765492, “Discovery of GLPG2451, a Novel Once Daily Potentiator for the Treatment of Cystic Fibrosis” (J Med Chem, 2021)
≈ marks a conversion by molar mass, not a printed value. One block for each molecule: values may come before it.

Tests used:
[1] = Unbound clearance in Sprague-Dawley rat at 1 mg/kg, iv; format: ADME, organism-based; details: in vivo
[2] = Toxicity in human assessed as drug tolerability during phase I study
Cytochrome P450 3A4 = Cytochrome P450 3A4 (Homo sapiens, UniProt P08684); experiment: Inhibition of CYP3A4 (unknown origin); format: ADME
Cytochrome P450 2C19 = Cytochrome P450 2C19 (Homo sapiens, UniProt P33261); experiment: Inhibition of CYP2C19 (unknown origin); format: ADME
[3] = Clearance in Sprague-Dawley rat at 1 mg/kg, iv; format: ADME, organism-based; details: in vivo
[4] = Thermodynamic solubility of the compound in the FASSIF medium; format: physicochemical; details: read-out: Therm_solubility
[5] = Unbound intrinsic clearance in dog liver microsomes; format: ADME, Canis lupus familiaris, Microsome
[6] = Volume of distribution at steady state in Sprague-Dawley rat at 1 mg/kg, iv; format: ADME, organism-based; details: in vivo, read-out: Vdss
[7] = Clearance in Beagle dog at 1 mg/kg, iv; format: ADME, organism-based, Canis lupus familiaris; details: in vivo
[8] = Unbound clearance in Cynomolgus monkey at 1 mg/kg, iv; format: ADME, organism-based, Macaca fascicularis; details: in vivo
[9] = Kinetic aqueous solubility of the compound at pH 7.4; format: physicochemical; details: buffer, read-out: Kinetic_solubility
[10] = Oral bioavailability Cynomolgus monkey at 1 mg/kg, […]; format: ADME, organism-based, Macaca fascicularis; details: in vivo
Cytochrome P450 2C9 = Cytochrome P450 2C9 (Homo sapiens, UniProt P11712); experiment: Inhibition of CYP2C9 (unknown origin); format: ADME
[11] = molecular target: T1, Cystic fibrosis transmembrane conductance regulator (Homo sapiens, UniProt P13569, F508DEL); experiment: Potentiation of CFTR F508del mutant in human HBE cells by trans-epithelial clamp circuit assay; format: cell-based, Primary bronchial epithelial cell
[12] = Unbound intrinsic clearance in rat liver microsomes; format: ADME, Microsome
Cytochrome P450 1A2 = molecular target: T2, Cytochrome P450 1A2 (Homo sapiens, UniProt P05177); experiment: Inhibition of CYP1A2 (unknown origin); format: ADME
T2 sequence (P05177 whole entry): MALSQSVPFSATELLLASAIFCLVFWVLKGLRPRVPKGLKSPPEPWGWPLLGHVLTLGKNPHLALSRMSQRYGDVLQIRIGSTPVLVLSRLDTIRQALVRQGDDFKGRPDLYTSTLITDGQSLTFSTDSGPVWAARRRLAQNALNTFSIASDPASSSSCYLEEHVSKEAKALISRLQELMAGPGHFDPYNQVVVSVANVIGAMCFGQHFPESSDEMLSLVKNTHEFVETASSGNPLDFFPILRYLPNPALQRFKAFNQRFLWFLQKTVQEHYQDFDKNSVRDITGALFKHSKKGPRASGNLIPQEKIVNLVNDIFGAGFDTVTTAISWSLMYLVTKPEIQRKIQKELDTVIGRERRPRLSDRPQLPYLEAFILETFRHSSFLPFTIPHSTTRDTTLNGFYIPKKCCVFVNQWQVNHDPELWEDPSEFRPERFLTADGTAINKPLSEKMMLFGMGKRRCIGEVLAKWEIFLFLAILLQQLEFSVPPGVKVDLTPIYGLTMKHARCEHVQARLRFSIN

[13] = Volume of distribution at steady state in Beagle dog at 1 mg/kg, iv; format: ADME, organism-based, Canis lupus familiaris; details: in vivo, read-out: Vdss
[14] = Half life in Sprague-Dawley rat at 1 mg/kg, iv; format: ADME, organism-based; details: in vivo
[15] = Oral bioavailability in Beagle dog at 1 mg/kg; format: ADME, organism-based, Canis lupus familiaris; details: in vivo
[16] = molecular target: Voltage-gated inwardly rectifying potassium channel KCNH2 (Homo sapiens, UniProt Q12809); experiment: Inhibition of human ERG by manual patch clamp assay
[17] = Half life in Cynomolgus monkey at 1 mg/kg, iv; format: ADME, organism-based, Macaca fascicularis; details: in vivo
[18] = Half life in Beagle dog at 1 mg/kg, iv; format: ADME, organism-based, Canis lupus familiaris; details: in vivo
[19] = molecular target: T3, Nuclear receptor subfamily 1 group I member 2 (Homo sapiens, UniProt O75469); experiment: Activation of PXR (unknown origin) at 10 uM by CYP450 induction assay relative to rifampicin; format: ADME
T3 sequence (O75469 whole entry): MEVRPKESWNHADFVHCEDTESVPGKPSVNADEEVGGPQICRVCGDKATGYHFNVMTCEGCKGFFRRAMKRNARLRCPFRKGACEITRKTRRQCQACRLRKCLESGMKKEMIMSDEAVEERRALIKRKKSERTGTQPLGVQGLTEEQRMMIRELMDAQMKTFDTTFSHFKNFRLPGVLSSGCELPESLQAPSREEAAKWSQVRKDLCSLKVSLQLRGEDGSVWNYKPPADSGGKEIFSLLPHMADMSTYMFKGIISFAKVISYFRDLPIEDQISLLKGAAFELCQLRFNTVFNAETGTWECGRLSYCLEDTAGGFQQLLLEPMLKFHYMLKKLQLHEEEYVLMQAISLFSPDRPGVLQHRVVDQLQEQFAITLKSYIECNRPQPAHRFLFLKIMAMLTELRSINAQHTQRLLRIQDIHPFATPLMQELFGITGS

[20] = Unbound clearance in Beagle dog at 1 mg/kg, iv; format: ADME, organism-based, Canis lupus familiaris; details: in vivo
[21] = Unbound intrinsic clearance in monkey liver microsomes; format: ADME, Macaca mulatta, Microsome; details: rhesus monkey
[22] = molecular target: T1, Cystic fibrosis transmembrane conductance regulator; experiment: Potentiation of CFTR F508del mutant (unknown origin) expressed in human CFBE41o- cells co-expressing YFP incubated for 10 mins by halide potentiator assay; format: cell-based
Cytochrome P450 2D6 = Cytochrome P450 2D6 (Homo sapiens, UniProt P10635); experiment: Inhibition of CYP2D6 (unknown origin); format: ADME
[23] = Unbound intrinsic clearance in human liver microsomes; format: ADME, Microsome
[24] = Volume of distribution at steady state in Cynomolgus monkey at 1 mg/kg, iv; format: ADME, organism-based, Macaca fascicularis; details: in vivo, read-out: Vdss
[25] = Clearance in Cynomolgus monkey at 1 mg/kg, iv; format: ADME, organism-based, Macaca fascicularis; details: in vivo
[26] = Permeability of compound across apical to basolateral membrane in MDCK cells; format: ADME, cell-based, Canis lupus familiaris; details: dog, read-out: permeability
[27] = Permeability efflux ratio in MDCK cells; format: ADME, cell-based, Canis lupus familiaris; details: dog
[28] = Inhibition of CYP450 (unknown origin); format: ADME; details: human
[29] = Genotoxicity in Salmonella typhimurium; format: toxicity; details: salmonella enterica subsp. enterica serovar typhimurium
[30] = test system: Cystic fibrosis transmembrane conductance regulator (Homo sapiens), P13569 [G551D]; experiment: Potentiation of CFTR G551D mutant (unknown origin) expressed in human HEK293 cells co-expressing YFP incubated for 10 mins by halide potentiator assay relative to control; format: cell-based; details: filed as activator
Chain of Cystic fibrosis transmembrane conductance regulator (Homo sapiens), P13569 [G551D] (P13569 whole entry G551D): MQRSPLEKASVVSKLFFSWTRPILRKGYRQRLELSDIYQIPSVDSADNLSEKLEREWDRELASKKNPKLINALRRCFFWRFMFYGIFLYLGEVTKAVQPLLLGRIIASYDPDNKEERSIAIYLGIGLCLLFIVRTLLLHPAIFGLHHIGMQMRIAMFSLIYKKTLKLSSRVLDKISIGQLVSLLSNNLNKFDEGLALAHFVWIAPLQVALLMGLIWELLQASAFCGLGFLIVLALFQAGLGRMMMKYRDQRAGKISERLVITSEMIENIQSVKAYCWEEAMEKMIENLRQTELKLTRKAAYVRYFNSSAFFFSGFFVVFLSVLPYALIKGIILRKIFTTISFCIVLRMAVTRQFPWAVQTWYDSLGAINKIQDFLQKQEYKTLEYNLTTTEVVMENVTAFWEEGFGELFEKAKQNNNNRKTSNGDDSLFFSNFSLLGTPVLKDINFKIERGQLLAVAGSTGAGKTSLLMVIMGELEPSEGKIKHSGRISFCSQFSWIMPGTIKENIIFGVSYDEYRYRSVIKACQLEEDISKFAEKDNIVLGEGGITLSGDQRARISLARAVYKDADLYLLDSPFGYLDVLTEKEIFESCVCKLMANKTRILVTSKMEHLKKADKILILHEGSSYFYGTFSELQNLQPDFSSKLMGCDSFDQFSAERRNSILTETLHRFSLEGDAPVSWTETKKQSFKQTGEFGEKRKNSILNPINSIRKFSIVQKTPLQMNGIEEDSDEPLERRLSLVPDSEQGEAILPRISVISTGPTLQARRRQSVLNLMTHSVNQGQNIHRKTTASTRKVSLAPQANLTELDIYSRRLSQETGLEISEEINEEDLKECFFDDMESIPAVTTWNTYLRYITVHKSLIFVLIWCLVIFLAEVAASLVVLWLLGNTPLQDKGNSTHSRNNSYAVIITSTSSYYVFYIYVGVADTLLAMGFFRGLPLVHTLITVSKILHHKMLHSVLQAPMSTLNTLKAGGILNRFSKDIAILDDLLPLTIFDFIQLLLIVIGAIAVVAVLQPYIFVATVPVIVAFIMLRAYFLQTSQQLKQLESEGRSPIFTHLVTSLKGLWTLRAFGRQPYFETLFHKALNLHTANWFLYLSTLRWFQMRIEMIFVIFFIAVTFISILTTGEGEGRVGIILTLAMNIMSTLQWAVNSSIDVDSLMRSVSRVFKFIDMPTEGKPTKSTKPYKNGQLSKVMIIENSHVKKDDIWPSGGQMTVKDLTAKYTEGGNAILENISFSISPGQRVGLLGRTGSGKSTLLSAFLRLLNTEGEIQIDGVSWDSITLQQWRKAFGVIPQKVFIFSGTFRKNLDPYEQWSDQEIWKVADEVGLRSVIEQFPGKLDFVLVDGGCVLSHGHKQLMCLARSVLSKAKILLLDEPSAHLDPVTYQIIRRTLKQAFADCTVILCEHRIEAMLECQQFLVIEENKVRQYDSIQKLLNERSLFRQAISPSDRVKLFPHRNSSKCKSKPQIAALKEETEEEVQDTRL

T1 sequence (P13569 as listed by the source): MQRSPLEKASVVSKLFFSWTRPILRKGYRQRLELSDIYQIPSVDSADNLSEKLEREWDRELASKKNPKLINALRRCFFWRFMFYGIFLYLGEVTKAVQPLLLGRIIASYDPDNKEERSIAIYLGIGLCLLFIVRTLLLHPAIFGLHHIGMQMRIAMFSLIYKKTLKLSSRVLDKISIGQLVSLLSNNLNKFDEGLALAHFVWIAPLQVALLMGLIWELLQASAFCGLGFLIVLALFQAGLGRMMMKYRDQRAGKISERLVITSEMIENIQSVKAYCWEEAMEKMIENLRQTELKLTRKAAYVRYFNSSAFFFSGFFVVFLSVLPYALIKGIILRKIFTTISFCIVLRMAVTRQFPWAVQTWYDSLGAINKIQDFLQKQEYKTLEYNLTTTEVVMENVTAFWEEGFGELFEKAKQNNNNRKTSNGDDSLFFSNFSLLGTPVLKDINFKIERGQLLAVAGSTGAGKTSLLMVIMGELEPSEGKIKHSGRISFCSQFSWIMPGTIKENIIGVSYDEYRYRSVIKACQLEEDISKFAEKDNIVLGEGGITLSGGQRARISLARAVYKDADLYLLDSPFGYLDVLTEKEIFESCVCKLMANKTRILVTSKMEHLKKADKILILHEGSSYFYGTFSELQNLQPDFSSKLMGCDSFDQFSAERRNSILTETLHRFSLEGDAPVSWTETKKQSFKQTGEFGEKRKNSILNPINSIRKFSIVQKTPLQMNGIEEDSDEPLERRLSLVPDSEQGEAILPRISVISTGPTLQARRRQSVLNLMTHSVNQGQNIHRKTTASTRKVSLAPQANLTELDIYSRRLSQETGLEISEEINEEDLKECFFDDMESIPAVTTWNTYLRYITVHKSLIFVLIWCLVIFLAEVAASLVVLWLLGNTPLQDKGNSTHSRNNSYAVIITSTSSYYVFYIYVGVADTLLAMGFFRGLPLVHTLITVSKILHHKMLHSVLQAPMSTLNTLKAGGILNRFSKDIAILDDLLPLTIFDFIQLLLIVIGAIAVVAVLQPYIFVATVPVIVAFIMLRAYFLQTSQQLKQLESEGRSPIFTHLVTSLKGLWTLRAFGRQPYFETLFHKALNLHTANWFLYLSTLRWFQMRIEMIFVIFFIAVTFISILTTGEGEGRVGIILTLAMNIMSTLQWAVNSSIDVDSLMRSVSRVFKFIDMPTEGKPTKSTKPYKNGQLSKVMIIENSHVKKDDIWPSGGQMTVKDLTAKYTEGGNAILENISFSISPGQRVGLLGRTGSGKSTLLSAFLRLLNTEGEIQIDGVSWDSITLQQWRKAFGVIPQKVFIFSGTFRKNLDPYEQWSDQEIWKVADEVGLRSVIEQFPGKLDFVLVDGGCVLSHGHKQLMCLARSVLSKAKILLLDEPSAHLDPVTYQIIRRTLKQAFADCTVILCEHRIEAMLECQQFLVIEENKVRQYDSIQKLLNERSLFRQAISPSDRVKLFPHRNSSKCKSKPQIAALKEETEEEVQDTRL
Chain of Voltage-gated inwardly rectifying potassium channel KCNH2 (Q12809 whole entry): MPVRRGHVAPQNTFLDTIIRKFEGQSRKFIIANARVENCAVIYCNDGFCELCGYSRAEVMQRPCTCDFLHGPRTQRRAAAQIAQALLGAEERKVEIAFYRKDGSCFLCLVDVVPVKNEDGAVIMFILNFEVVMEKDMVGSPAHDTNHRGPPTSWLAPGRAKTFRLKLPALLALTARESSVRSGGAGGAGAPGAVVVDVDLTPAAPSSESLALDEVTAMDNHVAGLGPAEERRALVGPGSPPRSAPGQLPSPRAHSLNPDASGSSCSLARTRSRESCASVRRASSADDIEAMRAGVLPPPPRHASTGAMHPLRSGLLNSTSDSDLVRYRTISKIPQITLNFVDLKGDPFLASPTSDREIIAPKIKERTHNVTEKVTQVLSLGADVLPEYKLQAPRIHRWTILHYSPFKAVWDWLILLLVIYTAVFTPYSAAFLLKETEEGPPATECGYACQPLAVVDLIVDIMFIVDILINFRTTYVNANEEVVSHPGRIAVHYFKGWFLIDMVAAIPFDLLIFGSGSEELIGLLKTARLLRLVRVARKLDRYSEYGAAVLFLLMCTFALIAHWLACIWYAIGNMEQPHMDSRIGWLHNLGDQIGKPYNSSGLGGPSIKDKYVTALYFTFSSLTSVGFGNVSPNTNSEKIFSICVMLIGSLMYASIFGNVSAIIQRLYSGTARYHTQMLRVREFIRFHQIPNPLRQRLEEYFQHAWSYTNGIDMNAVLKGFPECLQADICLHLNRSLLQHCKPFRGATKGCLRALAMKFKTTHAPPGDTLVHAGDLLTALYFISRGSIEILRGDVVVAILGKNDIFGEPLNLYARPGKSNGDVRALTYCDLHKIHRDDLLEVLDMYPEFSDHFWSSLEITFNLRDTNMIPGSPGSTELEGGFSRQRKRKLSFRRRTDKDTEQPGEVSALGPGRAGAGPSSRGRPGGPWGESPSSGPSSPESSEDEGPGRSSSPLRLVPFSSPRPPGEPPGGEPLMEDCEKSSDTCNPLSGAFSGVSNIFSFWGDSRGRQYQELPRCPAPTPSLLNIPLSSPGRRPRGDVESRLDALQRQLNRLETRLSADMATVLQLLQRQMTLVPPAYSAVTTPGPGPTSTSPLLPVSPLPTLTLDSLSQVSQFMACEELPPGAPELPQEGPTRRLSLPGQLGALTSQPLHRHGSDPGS
Chain of Cytochrome P450 2C9 (P11712 whole entry): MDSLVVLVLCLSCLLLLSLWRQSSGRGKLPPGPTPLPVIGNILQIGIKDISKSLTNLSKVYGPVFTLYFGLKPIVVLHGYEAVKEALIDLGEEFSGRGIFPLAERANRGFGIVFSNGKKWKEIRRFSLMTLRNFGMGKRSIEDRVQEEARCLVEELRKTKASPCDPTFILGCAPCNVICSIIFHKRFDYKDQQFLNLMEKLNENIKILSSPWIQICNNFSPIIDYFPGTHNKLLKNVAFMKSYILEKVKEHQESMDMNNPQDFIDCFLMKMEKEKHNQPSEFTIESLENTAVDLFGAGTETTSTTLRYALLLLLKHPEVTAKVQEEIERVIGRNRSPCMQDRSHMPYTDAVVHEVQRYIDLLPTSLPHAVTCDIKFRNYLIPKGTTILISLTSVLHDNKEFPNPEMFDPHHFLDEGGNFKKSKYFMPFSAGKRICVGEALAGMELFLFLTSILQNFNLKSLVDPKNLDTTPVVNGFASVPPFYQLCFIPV
Chain of Cytochrome P450 2D6 (P10635 whole entry): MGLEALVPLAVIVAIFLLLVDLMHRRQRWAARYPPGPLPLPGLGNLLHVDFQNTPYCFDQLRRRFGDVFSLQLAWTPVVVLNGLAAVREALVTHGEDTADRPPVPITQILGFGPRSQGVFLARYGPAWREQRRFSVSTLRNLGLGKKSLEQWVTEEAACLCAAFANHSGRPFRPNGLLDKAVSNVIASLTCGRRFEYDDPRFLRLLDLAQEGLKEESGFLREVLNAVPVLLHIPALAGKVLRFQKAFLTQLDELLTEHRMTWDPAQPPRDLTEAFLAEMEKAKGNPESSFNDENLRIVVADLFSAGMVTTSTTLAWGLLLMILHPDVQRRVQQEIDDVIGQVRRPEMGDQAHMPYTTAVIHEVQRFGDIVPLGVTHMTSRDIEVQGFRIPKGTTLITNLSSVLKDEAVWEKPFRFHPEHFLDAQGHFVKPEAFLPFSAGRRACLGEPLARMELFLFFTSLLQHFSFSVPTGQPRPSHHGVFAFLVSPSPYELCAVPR

CL free [1]: 45 mL/min/kg | EC50 (Cytochrome P450 3A4): > 100000 nM | EC50 (Cytochrome P450 2C19): > 33000 nM | clearance [3]: 1.33 mL/min/kg | solubility thermodynamic [4]: 83 µM (≈ 34.8 µg/mL) | CL free [5]: 28.3 mL/min/kg | Vd [6]: 1.1 L/kg | clearance [7]: 2.33 mL/min/kg | CL free [8]: 21.7 mL/min/kg | solubility kinetic [9]: 37 µM (≈ 15.5 µg/mL) | F [10]: 100% | EC50 (Cytochrome P450 2C9): 26000 nM | EC50 [11]: 18 nM | CL free [12]: 41.7 mL/min/kg | EC50 (Cytochrome P450 1A2): > 100000 nM | Vd [13]: 2.7 L/kg | half-life [14]: 8.9 h | bioavailability [15]: 93% | half-life [17]: 16 h | half-life [18]: 15 h | Activity [19]: 12% | CL free [20]: 33 mL/min/kg | CL free [21]: 18.3 mL/min/kg | EC50 [22]: 11 nM | EC50 (Cytochrome P450 2D6): > 100000 nM | CL free [23]: 20 mL/min/kg | Vd [24]: 0.8 L/kg | clearance [25]: 0.667 mL/min/kg
SMILES: C[C@H](O)CNC(=O)c1ncc(S(=O)(=O)c2ccc(OC(F)(F)F)cc2)cc1N
Activity [2]: Non-Toxic | EC50 [16]: > 30000 nM

CL free [12]: 93.3 mL/min/kg | EC50 [22]: 2.8 nM
SMILES: Nc1cc(S(=O)(=O)c2ccc(OC(F)(F)F)cc2)cnc1C(=O)NCC1(O)CC1

CL free [12]: 105 mL/min/kg | EC50 [22]: 352 nM
SMILES: CC(C)(C)C(=O)Nc1sc(S(=O)(=O)c2ccc(F)cc2)cc1C(N)=O

Papp A→B [26]: 0.9 ×10⁻⁶ cm/s | CL free [12]: 71.7 mL/min/kg | efflux ratio [27]: 37 | EC50 [22]: 29 nM
SMILES: NC(=O)c1cc(S(=O)(=O)c2ccc(F)cc2)sc1NC(=O)c1ccn[nH]1

solubility kinetic [9]: 37 µM (≈ 16 µg/mL) | CL free [12]: 93.3 mL/min/kg | Activity [19]: 41% | EC50 [22]: 33 nM | inhibition (INH) [28]: Not Active
SMILES: CC(C)(O)CNC(=O)c1ncc(S(=O)(=O)c2ccc(OC(F)(F)F)cc2)cc1N
Activity [29]: Non-Toxic

EC50 [22]: > 2000 nM
SMILES: CN(C[C@@H](O)C(F)(F)F)C(=O)c1ncc(S(=O)(=O)c2ccc(F)cc2)cc1N

CL free [12]: 28.3 mL/min/kg | EC50 [22]: 1.1 nM
SMILES: Nc1cc(S(=O)(=O)c2ccc(F)cc2)cnc1C(=O)N1CC(O)(C(F)(F)F)C1

Activity [30]: 53%
SMILES: CC(C)(C)c1cc(C(C)(C)C)c(NC(=O)c2c[nH]c3ccccc3c2=O)cc1O

Papp A→B [26]: 0.5 ×10⁻⁶ cm/s | CL free [12]: 250 mL/min/kg | efflux ratio [27]: 40 | EC50 [22]: 13 nM
SMILES: NC(=O)c1cc(S(=O)(=O)N2CCCCC2)sc1NC(=O)c1ccn[nH]1
